For series [1] the following is noted: human, in vivo, po; cited from earlier work.
Series [2] relates to subjects with overactive bladder. It is filed as in vivo, human. Here is the method:
Dexmecamylamine is a use-dependent potent inhibitor of the α3 nicotinic receptor subtype (e.g., α3β2 and α3β4). Such receptors are expressed in the urothelium and regulate bladder smooth muscle contraction. (Beckel et al., Expression of functional nicotinic acetylcholine receptors in rat urinary bladder epithelial cells, Am. J. Physiol. Renal Physiol. 290:F103-110, 2006). A clinical study was performed to evaluate the safety, tolerability, and efficacy of dexmecamylamine (TC-5214) for the treatment of Overactive Bladder (OAB). The study included a three- or five-week screening period, followed by a 12-week treatment period during which patients received either one of three doses of dexmecamylamine or placebo twice daily, randomized in a ratio of 2:1:1:1 (placebo, low dose, mid dose, high dose), with a two-week follow-up period. A total of 768 subjects with overactive bladder were randomized into the double-blind treatment period of the study. On Jul. 28, 2014, Targacept announced top-line results from the Phase 2b clinical trial of TC-5214 as a treatment for overactive bladder (OAB). […] See also, PCT Application No. […], which published as WO 2013/142162 A1.
As noted hereinabove, a clinical study was performed to evaluate the safety, tolerability, and efficacy of dexmecamylamine (TC-5214) for the treatment of Overactive Bladder (OAB). The study included a three- or five-week screening period, followed by a 12-week treatment period during which patients received either one of three doses of dexmecamylamine or placebo twice daily, randomized in a ratio of 2:1:1:1 (placebo, low dose, mid dose, high dose), with a two-week follow-up period. A total of 768 subjects with overactive bladder were randomized into the double-blind treatment period of the study. […] See also, PCT Application No. PCT/US2013/030640, which published as WO 2013/142162 A1.

Series [3] concerns Major Depressive Disorder (MDD) subjects. It is filed as in vivo, human. On the procedure: More recently, dexmecamylamine was evaluated as adjunctive therapy in the treatment of major depressive disorder (MDD) in a large international Phase 3 depression program. […] More than 2400 subjects have received dexmecamylamine in double-blind or open-label studies.
No safety studies using dexmecamylamine have been performed in OAB. Phase 2 and Phase 3 clinical studies using dexmecamylamine in Major Depressive Disorder (MDD) have been conducted and completed. […] Briefly, in the fixed dose Phase 3 studies in MDD, at doses of 2 mg BID (the maximum doses to be studied in the OAB study), the most frequent treatment emergent adverse events that were reported more than 2% more commonly in the dexmecamylamine group compared to placebo group were: constipation (15.2% dexmecamylamine vs. 3.8% placebo): and dry mouth (7.0% dexmecamylamine vs. 1.3% placebo).

A short description of series [4]: Excretion of dexmecamylamine in urine. The following applies: in vivo. From the text:
The exposure differential results in the ability of dexmecamylamine to target local nicotinic receptors in the urothelium that affect bladder contraction frequency while limiting systemic side effects. Consequently, the potential for dexmecamylamine to treat OAB through its action on nAChRs in the bladder urothelium warrants further investigation.

The test system of series [5] is sympathetic activities. The series is described as follows: Dose-responses for inhibition of sympathetic activities at low and high firing frequency (FIG. 2). The following applies: 1 Hz versus 10 Hz firing frequency. Here is the method:
This is believed due, in part, to the fact that TC-5214 potency will increase with frequency due to its slow off-rate kinetics. See FIG. 2, which illustrates a 10-fold shift to the left with increasing frequency. The effective dose range, therefore, is believed to be between 0.1 and 1 mg; with a top dose at 2 mg once per day, since sympathetic activity decreases at night in primary hyperhidrosis. […] The potency of TC-5214 shifts to the left (red/triangle curve) thereby reducing sweating due to overactive sympathetic but remain too low to induce inhibition of the parasympathetic and associated side effects, including urinary retention and constipation.

For series [6] the following is noted: pre-clinical; see U.S. Pat. No. 7,101,916; cited from earlier work.

For `CNC1(C)C2CCC(C2)C1(C)C.Cl` (racemic) [mecamylamine, N,2,3,3-tetramethylbicyclo[2.2.1]heptan-2-amine hydrochloride], the “absorption from the gastrointestinal tract” value in series [1] is recorded as “nearly complete absorption”.

Turning to `CNC1(C)[C@H]2CCC(C2)C1(C)C` (stereo in doubt) [TC-5214, (S)-N,2,3,3-tetramethylnorbornan-2-amine], the “micturition frequency per 24 hours (co-primary endpoint)” value in series [2] (high dose, twice daily, after 12 weeks of treatment, p=0.033) is on record as “statistically significant reduction”. For the same compound, the “episodes of urinary incontinence per 24 hours (co-primary endpoint)” value in series [2] (high dose, twice daily, after 12 weeks of treatment, p=0.379) is “improvement that did not reach statistical significance”. The safety and tolerability entry in series [2] (human, in vivo) was “generally safe and well tolerated”. Moreover, in series [2] (human, in vivo, 12 weeks), the “placebo corrected rate of constipation” value is given as 15.1% and the “rate of urinary tract infection (placebo corrected)” value is reported as 5.9%. Besides, the “efficacy in the treatment of depression” value in series [3] (adjunctive therapy, Phase 3 depression program) is “failed to demonstrate efficacy”. Besides, in series [3] (human, in vivo), the safety and tolerability entry is “generally safe and well-tolerated”; the “vital signs, blood or urine laboratory measurements, ECG conduction intervals, suicidality” value is on record as “no noteworthy differences”. Besides, the “excretion in the urine” value in series [4] is given as “excreted almost entirely unchanged in the urine”. The “shift of potency (dose-response to the left) with increasing frequency” value in series [5] is listed as 10 fold. In series [6], the “safety profile versus mecamylamine and its R-isomer” value was “superior safety profile”.
